The values below come from ChEMBL document CHEMBL1149573, “Synthesis and reactivity of azobenzene-based bispropargyl sulfones: interesting comparison between cyclic and acyclic systems” (Bioorg Med Chem Lett, 2007).

The assay has as its system Escherichia coli. In words: Induction of pBR322 DNA cleavage after 2.5 hrs relative to (E)-1,2-bis(2-(4-(phenylsulfonyl)but-2-ynyloxy)phenyl)diazene.

Turning to `O=S(=O)(CC#CCOc1ccc2ccccc2c1)c1ccccc1`, the Activity amounted to 15%.
